This passage reports Ratio and IC50 results from patent publication US11254686B1 (Corvus Pharmaceuticals, Inc., priority 2017, dated 2022).

“And” between values parts separate entries of the source, which are not always exact repeats. Equal entries are not always repeated. Where only a bound is given, the exact number is not on record here.

Holding throughout (format): biochemical
Assay [1] deals with adenosine A2B receptor (Homo sapiens (Human), UniProt P29275). The experiment in a line: Adenosine receptor activity assay (Table 1), A2B activity. To be noted: for Ratio: A2A activity to the A2B activity, A2A/A2B; for IC50: cAMP, read-out: Ave A2B cAMP IC50.
The target of assay [2] is adenosine A2A receptor (Homo sapiens (Human), UniProt P29274). Nature of the assay: Adenosine receptor activity assay (Table 1), A2A activity. To be noted: cAMP; read-out: Ave A2A cAMP IC50.
The target of assay [3] is adenosine A1 receptor (Homo sapiens (Human), UniProt P30542). Nature of the assay: Adenosine receptor activity assay (Table 1), A1 cAMP.
In assay [4] the target is adenosine A3 receptor (Homo sapiens (Human), UniProt P0DMS8). Nature of the assay: Adenosine receptor activity assay (Table 1), A3 cAMP.
Sequence of adenosine A3 receptor (P0DMS8 whole entry): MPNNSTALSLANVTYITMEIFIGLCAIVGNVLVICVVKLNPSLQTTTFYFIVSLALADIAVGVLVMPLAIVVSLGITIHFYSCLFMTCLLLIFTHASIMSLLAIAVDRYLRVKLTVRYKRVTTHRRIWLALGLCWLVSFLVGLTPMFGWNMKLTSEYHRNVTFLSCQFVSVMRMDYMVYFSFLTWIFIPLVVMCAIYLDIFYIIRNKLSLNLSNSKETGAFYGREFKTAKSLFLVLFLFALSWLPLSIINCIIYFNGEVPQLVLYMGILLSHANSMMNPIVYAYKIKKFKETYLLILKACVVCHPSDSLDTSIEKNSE

Sequence of adenosine A2A receptor (P29274 whole entry): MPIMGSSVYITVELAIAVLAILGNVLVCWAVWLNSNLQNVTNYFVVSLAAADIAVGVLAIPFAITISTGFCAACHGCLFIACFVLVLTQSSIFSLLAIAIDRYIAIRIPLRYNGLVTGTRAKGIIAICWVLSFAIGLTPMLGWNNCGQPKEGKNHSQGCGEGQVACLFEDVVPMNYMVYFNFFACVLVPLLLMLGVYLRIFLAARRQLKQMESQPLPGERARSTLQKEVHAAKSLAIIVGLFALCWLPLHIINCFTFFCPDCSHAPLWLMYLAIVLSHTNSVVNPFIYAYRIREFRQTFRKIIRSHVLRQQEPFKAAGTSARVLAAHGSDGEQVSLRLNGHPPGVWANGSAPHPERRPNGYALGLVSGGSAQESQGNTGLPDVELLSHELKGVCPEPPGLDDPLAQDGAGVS
Sequence of adenosine A1 receptor (P30542 whole entry): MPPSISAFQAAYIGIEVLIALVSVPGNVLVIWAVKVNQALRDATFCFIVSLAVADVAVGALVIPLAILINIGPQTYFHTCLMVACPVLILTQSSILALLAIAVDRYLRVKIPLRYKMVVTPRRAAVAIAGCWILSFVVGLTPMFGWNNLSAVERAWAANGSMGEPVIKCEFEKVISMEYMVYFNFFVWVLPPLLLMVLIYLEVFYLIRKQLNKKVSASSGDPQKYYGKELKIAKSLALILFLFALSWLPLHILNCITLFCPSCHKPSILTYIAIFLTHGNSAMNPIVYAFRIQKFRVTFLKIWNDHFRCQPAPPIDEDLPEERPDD
Sequence of adenosine A2B receptor (P29275 whole entry): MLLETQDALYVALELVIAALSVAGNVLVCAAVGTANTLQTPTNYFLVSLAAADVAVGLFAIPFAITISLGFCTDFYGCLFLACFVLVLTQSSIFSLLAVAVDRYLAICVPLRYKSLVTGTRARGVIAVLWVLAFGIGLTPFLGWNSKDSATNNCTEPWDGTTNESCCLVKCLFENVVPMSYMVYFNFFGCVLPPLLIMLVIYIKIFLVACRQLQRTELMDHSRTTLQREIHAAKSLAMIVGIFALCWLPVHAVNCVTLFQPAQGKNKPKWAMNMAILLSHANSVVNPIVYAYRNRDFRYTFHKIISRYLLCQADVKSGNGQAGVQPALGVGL

Usually IC50 stands for the point on the concentration scale where inhibition reaches its midpoint. Take `C[C@H](Nc1nc(C(=O)N2CC(NC(=O)NC(C)(C)C)C2)c2sccc2n1)c1cncc(F)c1` [Example Z611, (S)-1-(tert-Butyl)-3-(1-(2-((1-(5-fluoropyridin-3-yl)ethyl)amino)thieno[3,2-d]pyrimidine-4-carbonyl)azetidin-3-yl)urea]: in assay [1], the Ratio was 0.80. The IC50 in assay [1] is below 10 nM; in assay [2] it was below 10 nM; in assay [3], above 500 nM; in assay [4], 100 to 500 nM.

As to `C[C@H](Nc1nc(C(=O)N2CC(NC(=O)CCC3CCOCC3)C2)c2sccc2n1)c1cncc(F)c1` [Example Z612, (S)—N-(1-(2-((1-(5-Fluoropyridin-3-yl)ethyl)amino)thieno[3,2-d]pyrimidine-4-carbonyl)azetidin-3-yl)-3-(tetrahydro-2H-pyran-4-yl)propanamide], the Ratio in assay [1] turned out to be 1.02. Further, the IC50 in assay [1] is 10 to 50 nM; in assay [2], 10 to 50 nM; in assay [3], above 500 nM; in assay [4] it was 100 to 500 nM.

With `C[C@H](Nc1nc(C(=O)N2CC(NC(=O)c3cccc(F)c3)C2)c2sccc2n1)c1cncc(F)c1` [Example Z613, (S)-3-Fluoro-N-(1-(2-((1-(5-fluoropyridin-3-yl)ethyl)amino)thieno[3,2-d]pyrimidine-4-carbonyl)azetidin-3-yl)benzamide], in assay [1], the Ratio was found to be 2.55. Moreover, the IC50 was below 10 nM in assay [1], below 10 nM in assay [2], above 500 nM in assay [3] and 100 to 500 nM in assay [4].

For `C[C@H](Nc1nc(C(=O)N2CC(NC(=O)c3ccccc3F)C2)c2sccc2n1)c1cncc(F)c1` [Example Z614, (S)-2-Fluoro-N-(1-(2-((1-(5-fluoropyridin-3-yl)ethyl)amino)thieno[3,2-d]pyrimidine-4-carbonyl)azetidin-3-yl)benzamide], in assay [1], the Ratio is reported as 1.76. The concentration for half-maximal inhibition (IC50) was below 10 nM in assay [1], below 10 nM in assay [2], above 500 nM in assay [3] and 100 to 500 nM in assay [4].

Turning to `C[C@H](Nc1nc(C(=O)N2CC(NC(=O)c3cccc(Cl)c3)C2)c2sccc2n1)c1cncc(F)c1` [Example Z615, (S)-3-Chloro-N-(1-(2-((1-(5-fluoropyridin-3-yl)ethyl)amino)thieno[3,2-d]pyrimidine-4-carbonyl)azetidin-3-yl)benzamide], the Ratio in assay [1] is given as 2.10. Also, the IC50 in assay [1] is below 10 nM; in assay [2] it was below 10 nM; in assay [3] it was above 500 nM; in assay [4] it was 100 to 500 nM.

With `C[C@H](Nc1nc(C(=O)N2CC(NC(=O)c3ccc(F)c(F)c3)C2)c2sccc2n1)c1cncc(F)c1` [Example Z616, (S)-3,4-Difluoro-N-(1-(2-((1-(5-fluoropyridin-3-yl)ethyl)amino)thieno[3,2-d]pyrimidine-4-carbonyl)azetidin-3-yl)benzamide], the Ratio in assay [1] is 4.32. In addition, the IC50 in assay [1] was below 10 nM; in assay [2] it was 10 to 50 nM; in assay [3], above 500 nM; in assay [4] it was above 500 nM.

Take `C[C@H](Nc1nc(C(=O)N2CC(NC(=O)c3ccc(Cl)cc3)C2)c2sccc2n1)c1cncc(F)c1` [Example Z617, (S)-4-Chloro-N-(1-(2-((1-(5-fluoropyridin-3-yl)ethyl)amino)thieno[3,2-d]pyrimidine-4-carbonyl)azetidin-3-yl)benzamide]: the Ratio in assay [1] came out at 3.67. The concentration for half-maximal inhibition (IC50) in assay [1] was below 10 nM; in assay [2], 10 to 50 nM; in assay [3] it was above 500 nM; in assay [4], above 500 nM.

With `C[C@H](Nc1nc(C(=O)N2CC(NC(=O)OC3CCCC3)C2)c2sccc2n1)c1cncc(F)c1` [Example Z618, Cyclopentyl (S)-(1-(2-((1-(5-fluoropyridin-3-yl)ethyl)amino)thieno[3,2-d]pyrimidine-4-carbonyl)azetidin-3-yl)carbamate], the Ratio in assay [1] worked out at 1.31. Besides, the IC50 in assay [1] was 10 to 50 nM; in assay [2] it was 10 to 50 nM; in assay [3] it was above 500 nM; in assay [4] it was 100 to 500 nM.

As to `C[C@H](Nc1nc(C(=O)N2CC(NC(=O)c3ccncc3)C2)c2sccc2n1)c1cncc(F)c1` [Example Z619, (S)—N-(1-(2-((1-(5-Fluoropyridin-3-yl)ethyl)amino)thieno[3,2-d]pyrimidine-4-carbonyl)azetidin-3-yl)isonicotinamide], the Ratio in assay [1] was determined as 6.42. In addition, the IC50 in assay [1] was 10 to 50 nM; in assay [2], 50 to 100 nM; in assay [3] it was above 500 nM; in assay [4], above 500 nM.

Regarding `C[C@H](Nc1nc(C(=O)N2CC(NC(=O)c3cccnc3)C2)c2sccc2n1)c1cncc(F)c1` [Example Z620, (S)—N-(1-(2-((1-(5-Fluoropyridin-3-yl)ethyl)amino)thieno[3,2d]pyrimidine-4-carbonyl)azetidin-3-yl)nicotinamide], in assay [1], the Ratio was 3.94. In addition, the 50% inhibitory concentration (IC50) in assay [1] is 10 to 50 nM; in assay [2], 50 to 100 nM; in assay [3], above 500 nM; in assay [4] it was above 500 nM.

For the molecule `C[C@H](Nc1nc(C(=O)N2CC(C)(NC(=O)C3CC3)C2)c2sccc2n1)c1cncc(F)c1` [Example Z621, (S)—N-(1-(2-((1-(5-Fluoropyridin-3-yl)ethyl)amino)thieno[3,2-d]pyrimidine-4-carbonyl)-3-methylazetidin-3-yl)cyclopropanecarboxamide], in assay [1], the Ratio amounted to 1.86. Besides, the concentration for half-maximal inhibition (IC50) in assay [1] is 10 to 50 nM; in assay [2], 50 to 100 nM; in assay [3], above 500 nM; in assay [4] it was below 10 nM.

Consider `C[C@H](Nc1nc(C(=O)N2CC(NC(=O)C3CCOCC3)C2)c2sccc2n1)c1cncc(F)c1` [Example Z622, (S)—N-(1-(2-((1-(5-Fluoropyridin-3-yl)ethyl)amino)thieno[3,2-d]pyrimidine-4-carbonyl)azetidin-3-yl)tetrahydro-2H-pyran-4-carboxamide], for which, in assay [1], the Ratio amounted to 1.02. The IC50 was 10 to 50 nM in assay [1], 10 to 50 nM in assay [2], above 500 nM in assay [3] and above 500 nM in assay [4].

With `C[C@H](Nc1nc(C(=O)N2CC(NC(=O)NC3CCC3)C2)c2sccc2n1)c1cncc(F)c1` [Example Z623, (S)-1-Cyclobutyl-3-(1-(2-((1-(5-fluoropyridin-3-yl)ethyl)amino)thieno[3,2-d]pyrimidine-4-carbonyl)azetidin-3-yl)urea], the Ratio in assay [1] was determined as 0.95. The IC50 in assay [1] is below 10 nM; in assay [2] it was below 10 nM; in assay [3], above 500 nM; in assay [4], 100 to 500 nM.

With `Cc1csc2c(C(=O)N3CC(NC(=O)c4cccc(Cl)c4)C3)nc(N[C@@H](C)c3cncc(F)c3)nc12` [Example Z625, (S)-3-Chloro-N-(1-(2-((1-(5-fluoropyridin-3-yl)ethyl)amino)-7-methylthieno[3,2-d]pyrimidine-4-carbonyl)azetidin-3-yl)benzamide], the Ratio in assay [1] turned out to be 0.68. For the same molecule, the IC50 is 10 to 50 nM in assay [1], 10 to 50 nM in assay [2], above 500 nM in assay [3] and above 500 nM in assay [4].

For the molecule `Cc1cccc(C(=O)NC2CN(C(=O)c3nc(N[C@@H](C)c4cncc(F)c4)nc4ccsc34)C2)c1` [Example Z626, (S)—N-(1-(2-((1-(5-Fluoropyridin-3-yl)ethyl)amino)thieno[3,2-d]pyrimidine-4-carbonyl)azetidin-3-yl)-3-methylbenzamide], in assay [1], the Ratio was found to be 0.85. Moreover, the IC50 in assay [1] is 10 to 50 nM; in assay [2], below 10 nM; in assay [3] it was above 500 nM; in assay [4] it was 100 to 500 nM.

Take `C[C@H](Nc1nc(C(=O)N2CC(NC(=O)C3(C)CCC3)C2)c2sccc2n1)c1cncc(F)c1` [Example Z627, (S)—N-(1-(2-((1-(5-Fluoropyridin-3-yl)ethyl)amino)thieno[3,2-d]pyrimidine-4-carbonyl)azetidin-3-yl)-1-methylcyclobutane-1-carboxamide]: in assay [1], the Ratio was 0.15 and 0.25. In addition, the IC50 in assay [1] was 10 to 50 nM; in assay [2] it was below 10 nM; in assay [3], above 500 nM; in assay [4], 100 to 500 nM.

In the case of `C[C@H](Nc1nc(C(=O)N2CC[C@@H](C(=O)NOC3CCCC3)C2)c2sccc2n1)c1cncc(F)c1` [Example Z628, (R)—N-(Cyclopentyloxy)-1-(2-(((S)-1-(5-fluoropyridin-3-yl)ethyl)amino)thieno[3,2-d]pyrimidine-4-carbonyl)pyrrolidine-3-carboxamide], the Ratio in assay [1] is given as 1.25. The IC50 was below 10 nM in assay [1], below 10 nM in assay [2], above 500 nM in assay [3] and 100 to 500 nM in assay [4].

`C[C@H](Nc1nc(C(=O)N2CC(NC(=O)c3ccc(C(F)(F)F)o3)C2)c2sccc2n1)c1cncc(F)c1` [Example Z629, (S)—N-(1-(2-((1-(5-Fluoropyridin-3-yl)ethyl)amino)thieno[3,2-d]pyrimidine-4-carbonyl)azetidin-3-yl)-5-(trifluoromethyl)furan-2-carboxamide]: the Ratio in assay [1] was 2.40. The IC50 in assay [1] was 10 to 50 nM; in assay [2], 10 to 50 nM; in assay [3], above 500 nM; in assay [4] it was above 500 nM.

Consider `CCC(CC)NC(=O)NC1CN(C(=O)c2nc(N[C@@H](C)c3cncc(F)c3)nc3ccsc23)C1` [Example Z630, (S)-1-(1-(2-((1-(5-Fluoropyridin-3-yl)ethyl)amino)thieno[3,2-d]pyrimidine-4-carbonyl)azetidin-3-yl)-3-(pentan-3-yl)urea], for which the Ratio in assay [1] amounted to 0.33. The IC50 in assay [1] was 10 to 50 nM; in assay [2] it was below 10 nM; in assay [3] it was above 500 nM; in assay [4] it was 10 to 50 nM.
